Literature values as cited in US8546585B2, “Process for preparing eprosartan mesylate” (Zhejiang Huahai Pharmaceutical Co., Ltd., priority 2008, dated 2013).
Counter-ions that a name gives are not always drawn.

Experiments:
[1] = mild, moderate and severe hypertensive patients
[2] = not given; remark: listed apart in the source
[3] = patients with liver and kidney dysfunction, or fullness after administration

- absorption (administrated orally): rapidly absorbed
- AUC (Area Under Curve) elevated by [3]: about 50%
- blood peak concentration elevated by [3]: about 50%
- protein binding rate [2]: 98%
SMILES: CCCCc1ncc(/C=C(\Cc2cccs2)C(=O)O)n1Cc1ccc(C(=O)O)cc1 [Eprosartan mesylate]
- lowering of systolic and diastolic pressures [1]: potent to lower systolic and diastolic pressures
- safety and tolerability [1]: safe and tolerable
